Measured values published in patent publication US20080293696A1, “2-Aminoarylcarboxamides Useful as Cancer Chemotherapeutic Agents” (Bayer Pharmaceuticals Corporation, priority 2004, published 2008).

System: PAKT/PKB (p-(S473) AKT) in H209 small cell lung carcinoma cells stimulated with Stem Cell Factor
Assay: PAKT/PKB Cytoblot Assay with H209 cells (SCF-stimulated p-(S473) AKT)
Format: cell-based
Conditions: Homo sapiens, NCI-H209, compound 1 hour, SCF 25 ng/mL 5 minutes
Experimental: PAKT/PKB Cytoblot Assay Protocol with H209 Cells
H209 small cell lung carcinoma cells in log phase were plated at 50,000 cells/well in 96-well poly-lysine coated, clear bottom/black-sided plates (BD Cat # 354640) in 100 μl RPMI medium containing 0.1% (w/v) BSA, and incubated overnight at 37° C. in 5% CO2 incubator. The following day, compounds (10 mM stock solutions in DMSO) were added to the plates to generate final concentrations of 0.0, 0.01, 0.03, 0.1, 0.3, 1.0, 3.0 and 10 μM for IC50 determinations and incubated for 1 hour at 37° C. Cells were then left untreated or stimulated with Stem Cell Factor (SCF: Biosource Cat # PHC2116) at a final concentration of 25 ng/mL for 5 minutes at 37° C. in 5% CO2 incubator. The media was then removed using a vacuum manifold and the cells were washed once with Tris Buffered Saline (TBS).
Cells were then fixed by adding 200 μl of cold 3.7% (v/v) formaldehyde in TBS to each well for 15 minutes at 4° C. After removal of the formaldehyde, the cells were treated with the addition of 50 μl of methanol (at −20° C.) to each well for 5 minutes. After removal of the methanol, […] of 1% (w/v) BSA in TBS was added to each well to block non-specific antibody binding sites and the plate was incubated at room temperature for 30 minutes.
After removal of the blocking buffer, 50 μl of p-(S473) AKT rabbit polyclonal antibody (Cell Signaling Cat # 9277S) was added at a dilution of 1:250 in 0.1% (w/v) BSA in TBS, and the plate was incubated at room temperature for 1 hour. Plates were then washed 3 times with cold TBS containing 0.05% (v/v) Tween 20 (TBS-T) and […] of Horseradish peroxidase (HRP)-conjugated goat-anti-rabbit antibody (Amersham Cat # NA934V) at a dilution of 1:250 in TBS-T was added and the plate was incubated at room temperature for 1 h. After washing with ice-cold TBS-T four times, 100 μl of Enhanced Chemiluminescence (ECL) reagent (Amersham Cat# RPN2209) was added to each well and mixed on a mini-orbital shaker for 1 min. The plate was then read on a Perkin Elmer Victor 5 Multilabel Counter (#1420-0421).

[1] = group: between 500 nM and 1 μM (units in value)

SMILES | IC50 (group: less than 500 nM) | further results
N#Cc1cc(CNc2cc(F)ccc2C(=O)Nc2ccc3c(c2)OC(F)(F)O3)ccn1 [Example 29, 2-{[(2-cyanopyridin-4-yl)methyl]amino}-N-(2,2-difluoro-1,3-benzodioxol-5-yl)-4-fluorobenzamide] | < 500 nM | 
N#Cc1cc(CNc2ccc(F)cc2C(=O)Nc2ccc3c(c2)OC(F)(F)O3)ccn1 [Example 30, 2-{[(2-cyanopyridin-4-yl)methyl]amino}-N-(2,2-difluoro-1,3-benzodioxol-5-yl)-5-fluorobenzamide] | < 500 nM | 
N#Cc1cc(CNc2cc(F)c(F)cc2C(=O)Nc2ccc3c(c2)OC(F)(F)O3)ccn1 [Example 36, 2-{[(2-cyanopyridin-4-yl)methyl]amino}-N-(2,2-difluoro-1,3-benzodioxol-5-yl)-4,5-difluorobenzamide] |  | IC50 (group: between 1 and 3 μM): 1000 to 3000 nM
N#Cc1cc(CNc2cc(F)c(F)cc2C(=O)Nc2ccc3c(c2)OC(F)(F)C(F)(F)O3)ccn1 [Example 38, 2-{[(2-cyanopyridin-4-yl)methyl]amino}-4,5-difluoro-N-(2,2,3,3-tetrafluoro-2,3-dihydro-1,4-benzodioxin-6-yl)benzamide] |  | IC50 [1]: 500 to 1000 nM
O=C(Nc1ccc2c(c1)OC(F)(F)C(F)(F)O2)c1ncncc1NCc1ccncc1 [Example 39, 5-[(pyridin-4-ylmethyl)amino]-N-(2,2,3,3-tetrafluoro-2,3-dihydro-1,4-benzodioxin-6-yl)pyrimidine-4-carboxamide] |  | IC50 (group: between 1 and 3 μM): 1000 to 3000 nM
O=C(Nc1ccc2c(c1)C(F)(F)OC(F)(F)O2)c1ccccc1NCc1ccnc(C2=NCCN2)c1 [Example 40, 2-({[2-(4,5-dihydro-1H-imidazol-2-yl)pyridin-4-yl]methyl}amino)-N-(2,2,4,4-tetrafluoro-4H-1,3-benzodioxin-6-yl)benzamide] |  | IC50 [1]: 500 to 1000 nM
O=C(Nc1ccc2c(c1)OC(F)(F)O2)c1cc(F)ccc1NCc1ccnc(C2=NCCN2)c1 [Example 41, N-(2,2-difluoro-1,3-benzodioxol-5-yl)-2-({[2-(4,5-dihydro-1H-imidazol-2-yl)pyridin-4-yl]methyl}amino)-5-fluorobenzamide] |  | IC50 (group: between 1 and 3 μM): 1000 to 3000 nM
CN(C)C(=O)c1cc(CNc2ccc(F)cc2C(=O)Nc2ccc3c(c2)OC(F)(F)O3)ccn1 [Example 42, 4-{[(2-{[(2,2-difluoro-1,3-benzodioxol-5-yl)amino]carbonyl}-4-fluorophenyl)amino]methyl}-N,N-dimethylpyridine-2-carboxamide] |  | IC50 (group: between 1 and 3 μM): 1000 to 3000 nM
CCNC(=O)c1cc(CNc2cc(F)c(F)cc2C(=O)Nc2ccc3c(c2)OC(F)(F)C(F)(F)O3)ccn1 [Example 43, 4-{[(4,5-difluoro-2-{[(2,2,3,3-tetrafluoro-2,3-dihydro-1,4-benzodioxin-6-yl)amino]carbonyl}phenyl)amino]methyl}-N-ethylpyridine-2-carboxamide] |  | IC50 [1]: 500 to 1000 nM
CN(C)c1nccc(CNc2ccccc2C(=O)Nc2ccc3c(c2)OC(F)(F)O3)n1 [Example 48, N-(2,2-difluoro-1,3-benzodioxol-5-yl)-2-({[2-(dimethylamino)pyrimidin-4-yl]methyl}amino)benzamide] | < 500 nM | 
CNc1nccc(CNc2ccccc2C(=O)Nc2ccc3c(c2)OC(F)(F)O3)n1 [Example 49, N-(2,2-difluoro-1,3-benzodioxol-5-yl)-2-({[2-(methylamino)pyrimidin-4-yl]methyl}amino)benzamide] | < 500 nM | 
CN(C)c1nccc(CNc2ccccc2C(=O)Nc2ccc3c(c2)OC(F)(F)C(F)(F)O3)n1 [Example 50, 2-({[2-(dimethylamino)pyrimidin-4-yl]methyl}amino)-N-(2,2,3,3-tetrafluoro-2,3-dihydro-1,4-benzodioxin-6-yl)benzamide] |  | IC50 [1]: 500 to 1000 nM
CNc1nccc(CNc2ccccc2C(=O)Nc2ccc3c(c2)OC(F)(F)C(F)(F)O3)n1 [Example 51, 2-({[2-(methylamino)pyrimidin-4-yl]methyl}amino)-N-(2,2,3,3-tetrafluoro-2,3-dihydro-1,4-benzodioxin-6-yl)benzamide] | < 500 nM | 
O=C(NC1CC1)c1cc(CNc2ccccc2C(=O)Nc2ccc3c(c2)OC(F)(F)O3)ccn1 [Example 74, N-cyclopropyl-4-{[(2-{[(2,2-difluoro-1,3-benzodioxol-5-yl)amino]carbonyl}phenyl)amino]methyl}pyridine-2-carboxamide] | < 500 nM | 
NC(=O)c1cc(CNc2ccccc2C(=O)Nc2ccc3c(c2)OC(F)(F)O3)ccn1 [Example 75, 4-{[(2-{[(2,2-Difluoro-1,3-benzodioxol-5-yl)amino]carbonyl}phenyl)amino]methyl}pyridine-2-carboxamide] | < 500 nM | 

Now from value to compound, other results behind:

IC50 (group: less than 500 nM) | SMILES | further results
< 500 nM | CNC(=O)c1cc(CNc2ccc(F)cc2C(=O)Nc2ccc3c(c2)OC(F)(F)O3)ccn1 [Example 31, 4-{[(2-{[(2,2-difluoro-1,3-benzodioxol-5-yl)amino]carbonyl}-4-fluorophenyl)amino]methyl}-N-methylpyridine-2-carboxamide] | 
< 500 nM | CNC(=O)c1cc(CNc2cc(F)ccc2C(=O)Nc2ccc3c(c2)OC(F)(F)C(F)(F)O3)ccn1 [Example 32, 4-{[(5-fluoro-2-{[(2,2,3,3-tetrafluoro-2,3-dihydro-1,4-benzodioxin-6-yl)amino]carbonyl}phenyl)amino]methyl}-N-methylpyridine-2-carboxamide] | 
< 500 nM | CNC(=O)c1cc(CNc2cc(F)ccc2C(=O)Nc2ccc3c(c2)OC(F)(F)O3)ccn1 [Example 33, 4-{[(2-{[(2,2-difluoro-1,3-benzodioxol-5-yl)amino]carbonyl}-5-fluorophenyl)amino]methyl}-N-methylpyridine-2-carboxamide] | 
< 500 nM | CNC(=O)c1cc(CNc2ccc(F)cc2C(=O)Nc2ccc3c(c2)OC(F)(F)C(F)(F)O3)ccn1 [Example 34, 4-{[(4-fluoro-2-{[(2,2,3,3-tetrafluoro-2,3-dihydro-1,4-benzodioxin-6-yl)amino]carbonyl}phenyl)amino]methyl}-N-methylpyridine-2-carboxamide] | 
< 500 nM | CNC(=O)c1cc(CNc2cc(F)c(F)cc2C(=O)Nc2ccc3c(c2)OC(F)(F)C(F)(F)O3)ccn1 [Example 37, 4-{[(4,5-difluoro-2-{[(2,2,3,3-tetrafluoro-2,3-dihydro-1,4-benzodioxin-6-yl)amino]carbonyl}phenyl)amino]methyl}-N-methylpyridine-2-carboxamide] | 
< 500 nM | CCNC(=O)c1cc(CNc2ccccc2C(=O)Nc2ccc3c(c2)OC(F)(F)C(F)(F)O3)ccn1 [Example 44, N-ethyl-4-{[(2-{[(2,2,3,3-tetrafluoro-2,3-dihydro-1,4-benzodioxin-6-yl)amino]carbonyl}phenyl)amino]methyl}pyridine-2-carboxamide] | 
< 500 nM | CCNC(=O)c1cc(CNc2ccccc2C(=O)Nc2ccc3c(c2)OC(F)(F)O3)ccn1 [Example 45, 4-{[(2-{[(2,2-difluoro-1,3-benzodioxol-5-yl)amino]carbonyl}phenyl)amino]methyl}-N-ethylpyridine-2-carboxamide] | 
< 500 nM | CCNC(=O)c1cc(CNc2ccc(F)cc2C(=O)Nc2ccc3c(c2)OC(F)(F)O3)ccn1 [Example 46, 4-{[(2-{[(2,2-difluoro-1,3-benzodioxol-5-yl)amino]carbonyl}-4-fluorophenyl)amino]methyl}-N-ethylpyridine-2-carboxamide] | 
< 500 nM | CCNC(=O)c1cc(CNc2cc(F)ccc2C(=O)Nc2ccc3c(c2)OC(F)(F)O3)ccn1 [Example 47, 4-{[(2-{[(2,2-difluoro-1,3-benzodioxol-5-yl)amino]carbonyl}-5-fluorophenyl)amino]methyl}-N-ethylpyridine-2-carboxamide] | 
